Results from patent US12473294B2, “Selective modulators of mutant LRRK2 proteolysis and associated methods of use” (Arvinas Operations, Inc., priority 2020, dated 2025).
Each block holds one compound with its values, some of them ahead of it.

Columns and labels:
G2019S LRRK2 = molecular target: T1, G2019S LRRK2 (Homo sapiens, UniProt Q5S007, G2019S); assay: LRRK2 degradation HiBit assay, G2019S LRRK2 tagged with a HiBit tag expressed in HEK293 cells; format: cell-based; details: 24 hours compound incubation; for Dmax: HEK293, HEK293 cells; for DC50: HEK293 cells
T1 construct: expressed in transfected cells; host or cells: HEK293 (ATCC CRL-1573)
Procedure: (§1) The assay measures the degradation of wildtype and G2019S LRRK2 tagged with a HiBit tag on the C-terminus of the protein that was expressed from a mammalian expression vector, driven by the ubiquitin promoter in HEK293 cells. Each compound dose-response was repeated on three separate days, on three separate plates each day.
(§2) Plasmid Preparation. Transfection mixes were assembled as follows and incubated for 30 minutes at room temperature. In a 15 mL tube, 5.25 mL Opti-MEM (no additions) was mixed with 17 μL Firefly Luciferase plasmid at 1 μg/μL and 158 μL WT plasmid DNA at 1 μg/μL (175 μg total DNA) were mixed by flicking. In a new 15 mL tube, 5.25 mL OptiMEM was mixed with 17 μL Firefly Luciferase plasmid at 1 μg/μL and 158 μL G2019S plasmid DNA at 1 μg/μL (175 μg total DNA) were mixed by flicking. X-tremeGene HP was mixed thoroughly using a vortex. Next, 175 μL was added to each tube and flicked to mix. Both tubes were left to incubate for 30 minutes at room temperature.
While the transfection mixes were incubating, HEK293 cells acquired from ATCC (ATCC CRL-1573) were harvested with trypsin. Once cells are detached, the cells were resuspended in 12 mL OptiMEM+5% FBS and transferred to a 50 mL tube. The cells were mixed well and counted. Using OptiMEM+5% FBS, the cells were diluted in two 250 mL conical tubes at 0.71×10^6 cells/mL in 70 mL. One tube was labeled “WT” and the other “G2019S”. The WT and G2019S transfection mixes were added dropwise to the corresponding 250 mL tubes. The tubes were mixed first by pipetting then by swirling. The tubes were incubated at room temperature for at least 5 minutes.
(§3) Each tube was swirled before dispensing and after every three plates. Seventy microliters of cells were dispensed with WT or G2019S DNA to seven plates each. Three plates of each were tested with compound plate one (preparation described below) and three plates of each were tested with compound plate two (preparation described below). The first plate from each set served as a “prime” plate and was not used to test compounds. Each plate was incubated in the hood for 10 minutes before placing in the 37° C. incubator for 24 hours.
(§4) Preparation of Compound and Assay Plates. Two compound plates were made using 96 well polypropylene plates. Compounds were made up at 10 mM and were diluted to 1 mM in 30 μL. Each dose response curve included a well of DMSO, as a negative control and for normalization, and a well of 0.5 μM of Exemplary Compound 4 as a positive control. In addition to seven test compounds, each plate also included a dose response of Exemplary Compound 4. The compound plates were spun down along at 1200 rpm for 2 minutes.
(§5) The two compound plates were then mixed and 2 μL was diluted in intermediate plates having 248 μL of Opti-Mem in each well. Next, 10 μL diluted compounds from the intermediate plates were added to each test plate (three WT and three G2019S plates per compound plate for a total of 12 assay plates). The plates were incubated for 24 hours at 37° C.
(§6) All assay plates and all Nano-Glo Dual-Luciferase Reporter Assay System components (except for the DLR substrate) were equilibrated to room temperature. Next, the luciferase buffer was mixed with the lyophilized amber bottle until fully dissolved, and 75 μL of the luciferase mixture was added to each well of each assay plate. The assay plates were incubated for 10 minutes at room temperature with shaking for at least 5 minutes, and then read on a plate reader.
(§7) Developing Plates and Analyzing Data. One milliliter of DLR substrate and 1 mL LgBiT Protein were added to the Stop and Glo buffer, and 75 μL of the mixture was added to each well of each plate. Optically clear seals were added to each plate and each plate was incubated for 20 minutes with shaking for at least 10 minutes, and then read on a plate reader. […]

wildtype LRRK2 = molecular target: T2, wildtype LRRK2 (Homo sapiens, UniProt Q5S007); assay: LRRK2 degradation HiBit assay, wildtype LRRK2 tagged with a HiBit tag in HEK293 cells; format: cell-based; details: 24 hours compound incubation; for Dmax: read-out: ** WT Dmax (%); for DC50: read-out: *WT DC50
T2 construct: endogenous in cells; host or cells: HEK293 with HiBit knocked in at the 3' end of the endogenous LRRK2 gene, stably expressing firefly luciferase
Procedure: as §1, with “repeated on two separate days,” for “repeated on three separate days,”
as §2
While the transfection mixes were incubating, HEK293 cells (acquired from ATCC; ATCC CRL-1573) were harvested with trypsin. Once cells are detached, the cells were resuspended in 12 mL OptiMEM+5% FBS and transferred to a 50 mL tube. The cells were mixed well and counted. Using OptiMEM+5% FBS, the cells were diluted in two 250 mL conical tubes at 0.71×10^6 cells/mL in 70 mL. One tube was labeled “WT” and the other “G2019S”. The WT and G2019S transfection mixes were added dropwise to the corresponding 250 mL tubes. The tubes were mixed first by pipetting then by swirling. The tubes were incubated at room temperature for at least 5 minutes.
as §3, §4, §5, §6, §7

T2 sequence (Q5S007 whole entry): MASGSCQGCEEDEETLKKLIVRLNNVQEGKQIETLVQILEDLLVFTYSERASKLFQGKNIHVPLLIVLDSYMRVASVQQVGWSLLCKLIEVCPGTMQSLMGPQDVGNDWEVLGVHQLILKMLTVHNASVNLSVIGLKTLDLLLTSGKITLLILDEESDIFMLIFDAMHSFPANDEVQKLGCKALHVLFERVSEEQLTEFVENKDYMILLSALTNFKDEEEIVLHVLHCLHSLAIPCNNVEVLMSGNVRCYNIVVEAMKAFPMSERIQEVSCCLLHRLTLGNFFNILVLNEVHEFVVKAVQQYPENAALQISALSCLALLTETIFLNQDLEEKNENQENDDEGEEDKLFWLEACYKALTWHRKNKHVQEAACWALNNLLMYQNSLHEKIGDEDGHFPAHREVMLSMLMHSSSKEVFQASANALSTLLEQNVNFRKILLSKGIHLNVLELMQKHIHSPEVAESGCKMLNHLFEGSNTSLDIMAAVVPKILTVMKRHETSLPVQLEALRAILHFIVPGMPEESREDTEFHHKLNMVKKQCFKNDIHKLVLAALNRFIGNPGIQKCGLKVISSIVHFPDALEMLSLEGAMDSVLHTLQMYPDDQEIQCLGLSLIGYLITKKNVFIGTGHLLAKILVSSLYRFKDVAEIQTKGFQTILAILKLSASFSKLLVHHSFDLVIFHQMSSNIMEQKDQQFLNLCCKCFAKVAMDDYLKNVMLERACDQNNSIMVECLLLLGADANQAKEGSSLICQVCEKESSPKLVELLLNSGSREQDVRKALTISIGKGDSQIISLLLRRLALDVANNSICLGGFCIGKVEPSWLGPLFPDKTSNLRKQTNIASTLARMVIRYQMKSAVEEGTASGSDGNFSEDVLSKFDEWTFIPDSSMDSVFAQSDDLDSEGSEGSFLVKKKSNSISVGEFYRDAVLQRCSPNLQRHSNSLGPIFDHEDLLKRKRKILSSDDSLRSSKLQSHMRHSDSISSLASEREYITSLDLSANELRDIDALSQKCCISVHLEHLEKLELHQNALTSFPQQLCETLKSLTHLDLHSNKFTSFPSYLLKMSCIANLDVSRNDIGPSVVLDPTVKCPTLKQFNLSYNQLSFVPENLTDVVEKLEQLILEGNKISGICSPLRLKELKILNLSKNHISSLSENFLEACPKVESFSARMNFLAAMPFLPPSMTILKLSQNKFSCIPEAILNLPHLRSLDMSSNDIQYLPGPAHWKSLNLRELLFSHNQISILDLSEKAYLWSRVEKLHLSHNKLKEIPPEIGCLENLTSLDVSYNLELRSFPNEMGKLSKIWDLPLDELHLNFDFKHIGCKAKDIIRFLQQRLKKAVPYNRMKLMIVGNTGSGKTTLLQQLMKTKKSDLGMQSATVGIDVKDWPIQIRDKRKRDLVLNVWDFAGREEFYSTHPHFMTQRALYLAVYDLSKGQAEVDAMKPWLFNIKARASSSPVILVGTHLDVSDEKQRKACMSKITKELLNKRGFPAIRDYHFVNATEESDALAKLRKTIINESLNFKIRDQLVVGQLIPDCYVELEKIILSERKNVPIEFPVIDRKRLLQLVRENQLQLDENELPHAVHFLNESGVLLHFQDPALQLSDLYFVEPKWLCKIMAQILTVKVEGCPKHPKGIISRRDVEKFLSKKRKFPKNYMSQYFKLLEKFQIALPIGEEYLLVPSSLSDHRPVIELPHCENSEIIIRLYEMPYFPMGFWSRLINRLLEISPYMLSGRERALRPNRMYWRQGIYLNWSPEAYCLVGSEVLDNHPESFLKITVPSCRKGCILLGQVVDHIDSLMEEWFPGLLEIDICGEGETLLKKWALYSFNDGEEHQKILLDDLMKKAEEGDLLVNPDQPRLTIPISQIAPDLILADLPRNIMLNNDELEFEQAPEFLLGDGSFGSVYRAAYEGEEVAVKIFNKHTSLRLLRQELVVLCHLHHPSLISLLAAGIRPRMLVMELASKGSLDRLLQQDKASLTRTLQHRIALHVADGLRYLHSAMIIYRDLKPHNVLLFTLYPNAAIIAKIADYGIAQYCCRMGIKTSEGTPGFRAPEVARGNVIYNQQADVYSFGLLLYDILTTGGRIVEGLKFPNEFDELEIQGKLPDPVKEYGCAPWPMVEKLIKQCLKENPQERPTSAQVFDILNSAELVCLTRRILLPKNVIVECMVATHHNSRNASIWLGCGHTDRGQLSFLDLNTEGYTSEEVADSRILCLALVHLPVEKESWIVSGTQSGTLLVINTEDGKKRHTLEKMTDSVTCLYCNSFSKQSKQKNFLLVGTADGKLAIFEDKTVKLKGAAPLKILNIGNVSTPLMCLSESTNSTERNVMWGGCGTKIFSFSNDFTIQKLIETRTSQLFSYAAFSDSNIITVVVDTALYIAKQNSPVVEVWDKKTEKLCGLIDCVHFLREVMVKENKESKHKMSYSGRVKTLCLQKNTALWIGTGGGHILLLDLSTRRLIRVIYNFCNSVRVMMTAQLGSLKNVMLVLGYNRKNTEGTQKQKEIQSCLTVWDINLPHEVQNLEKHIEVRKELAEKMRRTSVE
T1 sequence (Q5S007 whole entry G2019S): as the sequence (Q5S007 whole entry) above, with G2019S counted along it

Compound: CC1=C(C(=O)Nc2ccc3[nH]nc(-c4ccnc(N5CCN(CCN6CCC(CC7CCN(c8ccc9c(c8)C(=O)N(C8CCC(=O)NC8=O)C9=O)CC7)CC6)CC5)c4)c3c2)[C@@H](C)n2nnnc2N1C (stereo partly drawn) [compound 23, (7R)-N-(3-(2-(4-(2-(4-((1-(2-(2,6-dioxopiperidin-3-yl)-1,3-dioxoisoindolin-5-yl)piperidin-4-yl)methyl)piperidin-1-yl)ethyl)piperazin-1-yl)pyridin-4-yl)-1H-indazol-5-yl)-4,5,7-trimethyl-4,7-dihydrotetrazolo[1,5-a]pyrimidine-6-carboxamide]
- Dmax (G2019S LRRK2): 50 to 70%
- DC50 (G2019S LRRK2): 10 to 50 nM
- Dmax (wildtype LRRK2): 50 to 70%
- DC50 (wildtype LRRK2): 50 to 100 nM

Compound: CC1=C(C(=O)Nc2ccc3[nH]nc(-c4ccnc(N5CC6(CN(CC7CCN(c8ccc9c(c8)C(=O)N(C8CCC(=O)NC8=O)C9=O)CC7)C6)C5)c4)c3c2)[C@@H](C)n2nnnc2N1C (stereo partly drawn) [compound 26, (7R)-N-(3-{2-[6-({1-[2-(2,6-dioxopiperidin-3-yl)-1,3-dioxo-2,3-dihydro-1H-isoindol-5-yl]piperidin-4-yl}methyl)-2,6-diazaspiro[3.3]heptan-2-yl]pyridin-4-yl}-1H-indazol-5-yl)-4,5,7-trimethyl-4H,7H-[1,2,3,4]tetrazolo[1,5-a]pyrimidine-6-carboxamide]
- Dmax (G2019S LRRK2): ≥ 70%
- DC50 (G2019S LRRK2): ≥ 100 nM
- DC50 (wildtype LRRK2): ≥ 100 nM

Compound: CC1=C(C(=O)Nc2ccc3[nH]nc(-c4ccnc(N5CCN(CCC6CCN(CC7CCN(c8ccc9c(c8)C(=O)N(C8CCC(=O)NC8=O)C9=O)CC7)CC6)CC5)c4)c3c2)[C@@H](C)n2nnnc2N1C (stereo partly drawn) [compound 14, (7R)-N-(3-(2-(4-(2-(1-((1-(2-(2,6-dioxopiperidin-3-yl)-1,3-dioxoisoindolin-5-yl)piperidin-4-yl)methyl)piperidin-4-yl)ethyl)piperazin-1-yl)pyridin-4-yl)-1H-indazol-5-yl)-4,5,7-trimethyl-4,7-dihydrotetrazolo[1,5-a]pyrimidine-6-carboxamide]
- Dmax (G2019S LRRK2): < 50%
- DC50 (G2019S LRRK2): 50 to 100 nM
- Dmax (wildtype LRRK2): 50 to 70%
- DC50 (wildtype LRRK2): ≥ 100 nM

Compound: CC1=C(C(=O)Nc2ccc3[nH]nc(-c4ccnc(N5CCN(CC6CCN(CC7CCN(c8ccc9c(c8)C(=O)N(C8CCC(=O)NC8=O)C9=O)CC7)CC6)[C@@H](C)C5)c4)c3c2)[C@H](C)n2nnnc2N1C (single isomer, unassigned) [compound 9]
- Dmax (G2019S LRRK2): 50 to 70%
- DC50 (G2019S LRRK2): 50 to 100 nM
- Dmax (wildtype LRRK2): < 50%
- DC50 (wildtype LRRK2): ≥ 100 nM

Compound: CC1=C(C(=O)Nc2ccc3[nH]nc(-c4ccnc(N5CCN(CC6CCN(CC7CCN(c8ccc9c(c8)C(=O)N(C8CCC(=O)NC8=O)C9=O)CC7)CC6)[C@@H](C)C5)c4)c3c2)[C@@H](C)n2nnnc2N1C (single isomer, unassigned) [compound 8]
- Dmax (G2019S LRRK2): 50 to 70%
- DC50 (G2019S LRRK2): < 10 nM
- Dmax (wildtype LRRK2): 50 to 70%
- DC50 (wildtype LRRK2): 10 to 50 nM

Further lines, results first:

- Dmax (G2019S LRRK2): 50 to 70%
- DC50 (G2019S LRRK2): ≥ 100 nM
- DC50 (wildtype LRRK2): ≥ 100 nM
Compound: CC1=C(C(=O)Nc2ccc3[nH]nc(-c4ccnc(N5CCN(CCN6CCN(CC7CCN(c8ccc9c(c8)C(=O)N(C8CCC(=O)NC8=O)C9=O)CC7)CC6)CC5)c4)c3c2)[C@@H](C)n2nnnc2N1C (stereo partly drawn) [compound 21, (7R)-N-(3-(2-(4-(2-(4-((1-(2-(2,6-dioxopiperidin-3-yl)-1,3-dioxoisoindolin-5-yl)piperidin-4-yl)methyl)piperazin-1-yl)ethyl)piperazin-1-yl)pyridin-4-yl)-1H-indazol-5-y1)-4,5,7-trimethyl-4,7-dihydrotetrazolo[1,5-a]pyrimidine-6-carboxamide]

- Dmax (G2019S LRRK2): < 50%
- DC50 (G2019S LRRK2): 10 to 50 nM
- DC50 (wildtype LRRK2): ≥ 100 nM
Compound: CC1=C(C(=O)Nc2ccc3[nH]nc(-c4ccnc(N5CCN(CC6CCN(CC7CCN(c8ccc9c(c8)C(=O)N(C8CCC(=O)NC8=O)C9=O)CC7)CC6)[C@@H](C)C5)c4)c3c2)C(C)(C)n2nnnc2N1C (stereo partly drawn) [compound 34, N-(3-{2-[(3S)-4-{[1-({1-[2-(2,6-dioxopiperidin-3-yl)-1,3-dioxo-2,3-dihydro-1H-isoindol-5-yl]piperidin-4-yl}methyl)piperidin-4-yl]methyl}-3-methylpiperazin-1-yl]pyridin-4-yl}-1H-indazol-5-yl)-4,5,7,7-tetramethyl-4H,7H-[1,2,3,4]tetrazolo[1,5-a]pyrimidine-6-carboxamide]

- Dmax (G2019S LRRK2): 50 to 70%
- DC50 (G2019S LRRK2): 10 to 50 nM
- Dmax (wildtype LRRK2): 50 to 70%
- DC50 (wildtype LRRK2): ≥ 100 nM
Compound: CC1=C(C(=O)Nc2ccc3[nH]nc(-c4ccnc(N5CCN(CCCN6CCN(c7ccc8c(c7)C(=O)N(C7CCC(=O)NC7=O)C8=O)CC6)CC5)c4)c3c2)[C@@H](C)n2nnnc2N1C (stereo partly drawn) [compound 15, (7R)-N-(3-(2-(4-(3-(4-(2-(2,6-dioxopiperidin-3-yl)-1,3-dioxoisoindolin-5-yl)piperazin-1-yl)propyl)piperazin-1-yl)pyridin-4-yl)-1H-indazol-5-yl)-4,5,7-trimethyl-4,7-dihydrotetrazolo[1,5-a]pyrimidine-6-carboxamide]

- Dmax (G2019S LRRK2): < 50%
- DC50 (G2019S LRRK2): ≥ 100 nM
- DC50 (wildtype LRRK2): ≥ 100 nM
Compound: CC1=C(C(=O)Nc2ccc3[nH]nc(-c4ccnc(N5CCN(CCN6CCC(CN7CCN(c8ccc9c(c8)C(=O)N(C8CCC(=O)NC8=O)C9=O)CC7)CC6)[C@@H](C)C5)c4)c3c2)C(C)(C)n2nnnc2N1C (stereo partly drawn) [compound 36, N-(3-{2-[(3S)-4-{2-[4-({4-[2-(2,6-dioxopiperidin-3-yl)-1,3-dioxo-2,3-dihydro-1H-isoindol-5-yl]piperazin-1-yl}methyl)piperidin-1-yl]ethyl}-3-methylpiperazin-1-yl]pyridin-4-yl}-1H-indazol-5-yl)-4,5,7,7-tetramethyl-4H,7H-[1,2,3,4]tetrazolo[1,5-a]pyrimidine-6-carboxamide]

- Dmax (G2019S LRRK2): 50 to 70%
- DC50 (G2019S LRRK2): < 10 nM
- Dmax (wildtype LRRK2): 50 to 70%
- DC50 (wildtype LRRK2): < 10 nM
Compound: CC1=C(C(=O)Nc2ccc3[nH]nc(-c4ccnc(N5CCN(CC(F)(F)C6CCN(CC7CCN(c8ccc9c(c8)C(=O)N(C8CCC(=O)NC8=O)C9=O)CC7)CC6)CC5)c4)c3c2)[C@@H](C)n2nnnc2N1C (stereo partly drawn) [compound 22, (7R)-N-(3-(2-(4-(2-(1-((1-(2-(2,6-dioxopiperidin-3-yl)-1,3-dioxoisoindolin-5-yl)piperidin-4-yl)methyl)piperidin-4-yl)-2,2-difluoroethyl)piperazin-1-yl)pyridin-4-yl)-1H-indazol-5-yl)-4,5,7-trimethyl-4,7-dihydrotetrazolo[1,5-a]pyrimidine-6-carboxamide]
